The source of these data is publication PMC7144934, “Design, Synthesis and Biological Evaluation of Phenyl Urea Derivatives as IDO1 Inhibitors” (Molecules, 2020).

Experiment [1] has as its target T1, Recombinant human IDO1 (rhIDO1) (Homo sapiens, UniProt P14902).
T1 construct: made in house
Description: Enzyme assay for IDO1 inhibition. The settings on record: rhIDO1 enzyme assay; for IC50: 37 °C, 45 min. It counts as biochemical.

The target of experiment [2] is T2, Recombinant human TDO (rhTDO) (Homo sapiens, UniProt P48775).
T2 construct: made in house
T2 sequence (P48775 whole entry): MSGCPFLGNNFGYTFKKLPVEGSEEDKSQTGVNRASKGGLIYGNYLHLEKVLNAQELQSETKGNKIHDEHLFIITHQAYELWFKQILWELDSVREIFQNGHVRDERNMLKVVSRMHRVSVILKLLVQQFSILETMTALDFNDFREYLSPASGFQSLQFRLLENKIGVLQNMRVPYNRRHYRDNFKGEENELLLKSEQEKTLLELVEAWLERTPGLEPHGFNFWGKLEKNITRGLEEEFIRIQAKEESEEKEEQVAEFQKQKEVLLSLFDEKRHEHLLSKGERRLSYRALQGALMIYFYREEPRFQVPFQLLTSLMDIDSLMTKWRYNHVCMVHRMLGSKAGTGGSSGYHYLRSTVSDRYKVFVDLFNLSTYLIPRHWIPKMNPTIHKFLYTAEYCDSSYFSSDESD
Description: Enzyme assay for TDO inhibition. It counts as biochemical. To be noted: 37 °C, 45 min. As for the experimental part:
Recombinant human IDO1 and TDO were expressed and purified according to the reported procedures. The assay was performed according to the literature: A standard reaction mixture (100 µL) containing 100 mM potassium phosphate buffer (pH 6.5), 40 mM ascorbic acid (neutralized with NaOH), 200 µg/mL catalase, 20 µM methylene blue and 0.05 µM rhIDO1 or rhTDO was added to the solution containing the substrate L-tryptophan and the test sample at a determined concentration. The reaction was carried out at 37 °C for 45 min and stopped by adding 20 µL of 30% (w/v) trichloroacetic acid. After heating at 65 °C for 15 min, 100 µL of 2% (w/v) p-dimethylaminobenzaldehyde in acetic acid was added to each well. The yellow pigment derived from kynurenine was measured at 492 nm using a SYNERGY-H1 microplate reader (Biotek Instruments, Inc., Winooski, VT, USA). IC50 was analyzed using the GraphPad Prism 8.0 software (GraphPad Software, San Diego, CA, USA).

T1 sequence (P14902 whole entry): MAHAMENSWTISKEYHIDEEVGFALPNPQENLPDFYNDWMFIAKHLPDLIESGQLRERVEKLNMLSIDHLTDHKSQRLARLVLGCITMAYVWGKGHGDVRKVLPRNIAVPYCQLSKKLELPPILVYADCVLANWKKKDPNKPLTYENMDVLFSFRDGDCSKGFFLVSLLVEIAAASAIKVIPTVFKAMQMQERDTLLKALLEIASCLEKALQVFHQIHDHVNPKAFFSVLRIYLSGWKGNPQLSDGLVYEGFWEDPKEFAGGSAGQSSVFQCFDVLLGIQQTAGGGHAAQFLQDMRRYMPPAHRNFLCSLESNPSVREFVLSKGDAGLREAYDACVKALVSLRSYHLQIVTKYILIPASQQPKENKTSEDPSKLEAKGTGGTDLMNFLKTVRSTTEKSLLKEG

For `CCOC(=O)CC(c1ccc(N2CC(C)CC(C)C2)c(NC(=O)Nc2ccccc2)c1)C(F)(F)F` (stereo not shown) [g1, 3-[4-(3,5-dimethylpiperidin-1-yl)-3-(3-phenylureido)-phenyl]-4,4,4-trifluorobutyric Acid Ethyl Ester], the IC50 in experiment [1] and in experiment [2] was above 100 µM in each case.
For `CCOC(=O)CC(c1ccc(N2CC(C)CC(C)C2)c(NC(=O)Nc2ccc(C)cc2)c1)C(F)(F)F` (stereo not shown) [g2, 3-[4-(3,5-dimethylpiperidin-1-yl)-3-(3-p-tolylureido)phenyl]-4,4,4-trifluorobutyric Acid Ethyl Ester], the IC50 in experiment [1] and in experiment [2] was above 100 µM throughout.
With `CCOC(=O)CC(c1ccc(N2CC(C)CC(C)C2)c(NC(=O)Nc2ccc(Cl)cc2)c1)C(F)(F)F` (stereo not shown) [g3, 3-[3-[3-(4-chlorophenyl)-ureido]-4-(3,5-dimethylpiperidin-1-yl)-phenyl]-4,4,4-trifluorobutyric Acid Ethyl Ester], the IC50 in experiment [1] and in experiment [2] was above 100 µM throughout.
For the molecule `Cc1ccc(NC(=O)Nc2cc(C(CC(=O)O)C(F)(F)F)ccc2N2CC(C)CC(C)C2)cc1` (stereo not shown) [i2, 3-[4-(3,5-dimethylpiperidin-1-yl)-3-(3-p-tolylureido)phenyl]-4,4,4-trifluorobutyric Acid], in experiment [1], the “IDO1 inhibitory activity (in words)” value is recorded as “more potent IDO1 inhibitory activity than the unsubstituted i1” and the IC50 was 8.61 µM. The IC50 in experiment [2] was above 100 µM.
The matching figures for `CC1CC(C)CN(c2ccc(C(CC(=O)O)C(F)(F)F)cc2NC(=O)Nc2ccc(Cl)cc2)C1` (stereo not shown) [i3, 3-[3-[3-(4-chlorophenyl)ureido]-4-(3,5-dimethylpiperidin-1-yl)-phenyl]-4,4,4-trifluorobutyric Acid]: “more potent IDO1 inhibitory activity than the unsubstituted i1”, 5.69 µM and above 100 µM.
In the same order, the values of `CC1CC(C)CN(c2ccc(C(CC(=O)O)C(F)(F)F)cc2NC(=O)NC2CCCCC2)C1` (stereo not shown) [i4, 3-[3-(3-cyclohexylureido)-4-(3,5-dimethylpiperidin-1-yl)phenyl]-4,4,4-trifluorobutyric Acid] are “loss of inhibition”, above 100 µM and above 100 µM.
`CCCCNC(=O)Nc1cc(C(CC(=O)O)C(F)(F)F)ccc1N1CC(C)CC(C)C1` (stereo not shown) [i5, 3-[3-(3-butylureido)-4-(3,5-dimethylpiperidin-1-yl)-phenyl]-4,4,4-trifluorobutyric Acid]: in experiment [1], the “IDO1 inhibitory activity (in words)” value is “loss of inhibition” and the half-inhibitory concentration (IC50) is above 100 µM. In addition, the IC50 in experiment [2] was above 100 µM.
On to `Cc1ccccc1NC(=O)Nc1cc(C(CC(=O)O)C(F)(F)F)ccc1N1CC(C)CC(C)C1` (stereo not shown) [i6, 3-[4-(3,5-dimethylpiperidin-1-yl)-3-(3-o-tolylureido)phenyl]-4,4,4-trifluorobutyric Acid], for which, in experiment [1], the “IDO1 inhibitory activity (in words)” value is listed as “lost all IDO1 inhibitory activity” and the IC50 was above 100 µM. The IC50 in experiment [2] was above 100 µM.
For the molecule `Cc1cccc(NC(=O)Nc2cc(C(CC(=O)O)C(F)(F)F)ccc2N2CC(C)CC(C)C2)c1` (stereo not shown) [i7, 3-[4-(3,5-dimethylpiperidin-1-yl)-3-(3-m-tolylureido)phenyl]-4,4,4-trifluorobutyric Acid], in experiment [1], the “IDO1 inhibitory activity (in words)” value is on record as “lost all IDO1 inhibitory activity” and the IC50 was above 100 µM. Besides, in experiment [2], the IC50 is above 100 µM.
For `CC1CC(C)CN(c2ccc(C(CC(=O)O)C(F)(F)F)cc2NC(=O)Nc2ccccc2Cl)C1` (stereo not shown) [i8, 3-[3-[3-(2-chlorophenyl)ureido]-4-(3,5-dimethylpiperidin-1-yl)-phenyl]-4,4,4-trifluorobutyric Acid], in experiment [1], the “IDO1 inhibitory activity (in words)” value is “lost all IDO1 inhibitory activity” and the IC50 is above 100 µM. Also, the IC50 in experiment [2] was above 100 µM.
Regarding `CC1CC(C)CN(c2ccc(C(CC(=O)O)C(F)(F)F)cc2NC(=O)Nc2cccc(Cl)c2)C1` (stereo not shown) [i9, 3-[3-[3-(3-chlorophenyl)ureido]-4-(3,5-dimethylpiperidin-1-yl)-phenyl]-4,4,4-trifluorobutyric Acid], in experiment [1], the “IDO1 inhibitory activity (in words)” value is recorded as “lost all IDO1 inhibitory activity”. Also, the IC50 in experiment [1] and in experiment [2] was above 100 µM each time.
As for `CC1CC(C)CN(c2ccc(C(CC(=O)O)C(F)(F)F)cc2NC(=O)Nc2ccccc2C#N)C1` (stereo not shown) [i10, 3-[3-[3-(2-cyanophenyl)ureido]-4-(3,5-dimethylpiperidin-1-yl)-phenyl]-4,4,4-trifluorobutyric Acid], the “IDO1 inhibitory activity (in words)” value in experiment [1] is given as “lost all IDO1 inhibitory activity”. The IC50 in experiment [1] and in experiment [2] was above 100 µM throughout.
Take `CC1CC(C)CN(c2ccc(C(CC(=O)O)C(F)(F)F)cc2NC(=O)Nc2cccc(C#N)c2)C1` (stereo not shown) [i11, 3-[3-[3-(3-cyanophenyl)ureido]-4-(3,5-dimethylpiperidin-1-yl)-phenyl]-4,4,4-trifluorobutyric Acid]: in experiment [1], the “IDO1 inhibitory activity (in words)” value was “lost all IDO1 inhibitory activity” and the IC50 is above 100 µM. Also, the IC50 in experiment [2] was above 100 µM.
On to `COc1ccccc1NC(=O)Nc1cc(C(CC(=O)O)C(F)(F)F)ccc1N1CC(C)CC(C)C1` (stereo not shown) [i13, 3-{4-(3,5-dimethylpiperidin-1-yl)-3-[3-(2-methoxyphenyl)ureido]-phenyl}-4,4,4-trifluorobutyric Acid], for which, in experiment [1], the “IDO1 inhibitory activity (in words)” value is reported as “lost all IDO1 inhibitory activity” and the IC50 is above 100 µM. In addition, the half-inhibitory concentration (IC50) in experiment [2] was above 100 µM.
Consider `COc1cccc(NC(=O)Nc2cc(C(CC(=O)O)C(F)(F)F)ccc2N2CC(C)CC(C)C2)c1` (stereo not shown) [i14, 3-{4-(3,5-dimethylpiperidin-1-yl)-3-[3-(3-methoxyphenyl)ureido]-phenyl}-4,4,4-trifluorobutyric Acid], for which the “IDO1 inhibitory activity (in words)” value in experiment [1] is “lost all IDO1 inhibitory activity”. The IC50 in experiment [1] and in experiment [2] was above 100 µM in each case.
`COc1ccc(NC(=O)Nc2cc(C(CC(=O)O)C(F)(F)F)ccc2N2CC(C)CC(C)C2)cc1` (stereo not shown) [i15, 3-{4-(3,5-dimethylpiperidin-1-yl)-3-[3-(4-methoxyphenyl)ureido]-phenyl}-4,4,4-trifluorobutyric Acid]: the “IDO1 inhibitory activity (in words)” value in experiment [1] is on record as “more potent IDO1 inhibitory activity than the unsubstituted i1”. Moreover, the IC50 in experiment [1] was 1.62 µM; in experiment [2] it was above 100 µM.
For `CC1CC(C)CN(c2ccc(C(CC(=O)O)C(F)(F)F)cc2NC(=O)Nc2ccc(F)cc2F)C1` (stereo not shown) [i16, 3-[3-[3-(2,4-difluorophenyl)ureido]-4-(3,5-dimethylpiperidin-1-yl)-phenyl]-4,4,4-trifluorobutyric Acid], in experiment [1], the “IDO1 inhibitory activity (in words)” value is reported as “no inhibitory activities” and the IC50 was above 100 µM. In addition, in experiment [2], the IC50 was above 100 µM.
With `CC1CC(C)CN(c2ccc(C(CC(=O)O)C(F)(F)F)cc2NC(=O)Nc2ccc(Cl)cc2Cl)C1` (stereo not shown) [i17, 3-[3-[3-(2,4-dichlorophenyl)ureido]-4-(3,5-dimethylpiperidin-1-yl)-phenyl]-4,4,4-trifluorobutyric Acid], in experiment [1], the “IDO1 inhibitory activity (in words)” value was “no inhibitory activities” and the IC50 is above 100 µM. In experiment [2], the IC50 was above 100 µM.
With `CC1CC(C)CN(c2ccc(C(CC(=O)O)C(F)(F)F)cc2NC(=O)Nc2ccc(F)cc2)C1` (stereo not shown) [i18, 3-{4-(3,5-dimethylpiperidin-1-yl)-3-[3-(4-fluorophenyl)ureido]-phenyl}-4,4,4-trifluorobutyric Acid], the IC50 in experiment [1] is 5.48 µM; in experiment [2], above 100 µM.
For the molecule `CC1CC(C)CN(c2ccc(C(CC(=O)O)C(F)(F)F)cc2NC(=O)Nc2ccc(Br)cc2)C1` (stereo not shown) [i19, 3-[3-[3-(4-bromophenyl)ureido]-4-(3,5-dimethylpiperidin-1-yl)-phenyl]-4,4,4-trifluorobutyric Acid], the IC50 is 4.08 µM in experiment [1] and above 100 µM in experiment [2].
As for `CCc1ccc(NC(=O)Nc2cc(C(CC(=O)O)C(F)(F)F)ccc2N2CC(C)CC(C)C2)cc1` (stereo not shown) [i20, 3-{4-(3,5-dimethylpiperidin-1-yl)-3-[3-(4-ethylphenyl)ureido]phenyl}-4,4,4-trifluorobutyric Acid], the IC50 is 9.98 µM in experiment [1] and above 100 µM in experiment [2].
Take `CC1CC(C)CN(c2ccc(C(CC(=O)O)C(F)(F)F)cc2NC(=O)Nc2ccc(C(C)C)cc2)C1` (stereo not shown) [i21, 3-{4-(3,5-dimethylpiperidin-1-yl)-3-[3-(4-isopropylphenyl)ureido]-phenyl}-4,4,4-trifluorobutyric Acid]: in experiment [1], the “IDO1 inhibitory activity (in words)” value is listed as “loss of activity” and the IC50 was above 100 µM. Besides, the IC50 in experiment [2] was above 100 µM.
For `CC1CC(C)CN(c2ccc(C(CC(=O)O)C(F)(F)F)cc2NC(=O)Nc2ccc(OC(F)(F)F)cc2)C1` (stereo not shown) [i22, 3-{4-(3,5-dimethylpiperidin-1-yl)-3-[3-(4-trifluoromethoxyphenyl)-ureido]phenyl}-4,4,4-trifluorobutyric Acid], the IC50 in experiment [1] was 1.32 µM; in experiment [2] it was above 100 µM.
Take `CC1CC(C)CN(c2ccc(C(CC(=O)O)C(F)(F)F)cc2NC(=O)Nc2ccc(C(F)(F)F)cc2)C1` (stereo not shown) [i23, 3-{4-(3,5-dimethylpiperidin-1-yl)-3-[3-(4-trifluoromethylphenyl)-ureido]phenyl}-4,4,4-trifluorobutyric Acid]: the IC50 in experiment [1] was 0.415 µM; in experiment [2] it was above 100 µM.
